Data reported in patent publication US20030212034A1, “Method of treatment of obesity and paralyzed muscle and ergogenic aids” (priority 2002, published 2003).

Experiments:
Assay type in all cases: in vivo, rat
[1] = Muscle weights in 3-day denervated and contralateral control muscles; settings: same in both treatment groups
Protocol: Rats were anesthetized with ether and the sciatic nerve of the right hindlimb was severed. The left hindlimb was sham operated to serve as a control. Both skin wounds were closed with a metal clips. The rats used for the acute study were also implanted with a jugular catheter which was exteriorized on the back of the neck at the time of denervation for rapid administration of anesthesia.
Rats were injected either with AICAR (1 mg in 0.9% NaCl/g body weight) or a 0.9% NaCl solution ˜0, ˜24, and ˜48 hours after denervation and were then sacrificed ˜72 hours after denervation without injection. Rats were anesthetized with sodium pentobarbital (4.8 mg/100 g. body weight), soleus and gastrocnemius muscles from both sham and denervated sides were extracted, and muscles were quick frozen in liquid nitrogen and stored for analysis.

[2] = tested on: hydroxyacyl-CoA dehydrogenase; experiment: Muscle hydroxyacyl-CoA dehydrogenase activity after chronic AICAR injection; settings: chronic AICAR 1 mg/g daily 4 wk
Protocol: (§1) To determine the effect of chronic injection of AICAR on muscle enyzme activities or expression and on muscle GLUT4, rats were injected subcutaneously (between 8 and 10 a.m.) with AICAR (1 mg/g) or saline vehicle daily for 28±1 days in succession. Beginning with the first injection, controls were pair fed with AICAR-injected rats. Rats were anesthetized by intraperitoneal injection of pentobarbital sodium 22-25 hours after the last AICAR injection and the white and red regions of the quadriceps and the soleus muscles were removed and frozen as described above. Muscles were kept frozen at −70° C. until analyzed. Liver, heart, kidney, and fat pads were weighed.
(§2) For enzyme activity measurements, 10% homogenates were made from the respective muscles in 175 mM KCl, 10 mM GSH, 2 mM EDTA, pH 7.4. This homogenate was frozen and thawed 3 times and mixed thoroughly prior to enzymatic measurements. For succinate dehydrogenase and lactate dehydrogenase, an aliquot of the homogenate was centrifuged at 700×g for 10 min at 4° C. The remainder of the assays were performed on aliquots and dilutions of the mixed whole homogenate. Assays were performed by the following methods: citrate synthase, succinate dehydrogenase, the mitochondrial fraction of malate dehydrogenase, hexokinase, lactate dehydrogenase, carnitine palmitoyl transferase and hydroxyacyl-CoA dehydrogenase. Srere, P. A. Methods in Enzymology 13:3-6, 1969; King, T. E. Methods Enzymol 10:322-335, 1967; Shonk, C. E. & G. E. Boxer, Cancer Res. 24:709-721, 1964; Uyeda, K., & E. Racker, J. Biol Chem 240:4682-4688, 1965; Pesce, A., et al. J. Biol. Chem. 239:1753-1761, 1964; Baldwin, K. M., et al. Am. J. Physiol 222:373-378, 1972; Mole, P. A., et al. J. Clin. Invest. 50:2323-2330, 1971; Kobayashi, A. et al. J. Biochem. 119:775-782, 1996.

succinate dehydrogenase = experiment: Muscle succinate dehydrogenase activity after chronic AICAR injection; settings: AICAR 1 mg/g daily 4 wk, FIG. 4
Protocol: as §1
For enzyme activity measurements, 10% homogenates were made from the respective muscles in 175 mM KCl, 10 mM GSH, 2 mM EDTA, pH 7.4. This homogenate was frozen and thawed 3 times and mixed thoroughly prior to enzymatic measurements. For succinate dehydrogenase and lactate dehydrogenase, an aliquot of the homogenate was centrifuged at 700×g for 10 min at 4° C. The remainder of the assays were performed on aliquots and dilutions of the mixed whole homogenate. Assays were performed by the following methods: citrate synthase, succinate dehydrogenase, the mitochondrial fraction of malate dehydrogenase, hexokinase, lactate dehydrogenase, carnitine palmitoyl transferase and hydroxyacyl-CoA dehydrogenase. […]

citrate synthase = experiment: Muscle citrate synthase activity after chronic or intermittent AICAR injection; settings: for citrate synthase activity vs saline-injected controls: AICAR 4 weeks, FIG. 3
Protocol: as §1
After obtaining results on blunted acute response to an AICAR injection on AMPK in chronically treated rats, an additional experiment was done to determine if intermittent treatment of rats with AICAR would influence the extent of the increase in citrate synthase. This experiment was also of shorter duration to minimize down regulation that appeared to occur with prolonged treatment. Rats were injected for three days (1 mg/g) followed by two days of no treatment. They were then injected for five days, followed by another two days with no treatment and then for three additional days before killing 20-24 hours following the last injection. Rats were anesthetized and tissues were collected and frozen as before. Analytical methods. Muscles from rats killed 1 h after injection of AICAR or saline were analyzed for AMPK, acetyl-CoA carboxylase (ACC) at 0.2 mM citrate, ATP and CP and ZMP. Li, B., et al. J. Biol. Chem. 274:17534-17540, 1999; Winder, W. W., & D. G. Hardie Am. J. Physiol. 270:E299-E304, 1996; Heinz, F., & H. Weisser. Creatine phosphate. In: Methods of Enzymatic Analysis, edited by H. U. Bergmeyer. New York: Academic, 1983, p. 507-514.
as §2

hexokinase = experiment: Muscle hexokinase activity after chronic AICAR injection; settings: AICAR 1 mg/g 4 weeks, FIG. 5
Protocol: as §1, §2

GLUT4 = experiment: Muscle GLUT4 by western blot after chronic AICAR injection; settings: AICAR 1 mg/g 4 weeks, FIG. 5
Protocol: as §1
For the chronic effects of AICAR injection muscles were analyzed for glycogen GLUT-4, hexokinase, lactate dehydrogenase, and several mitochondrial enzymes. Hassid, W. Z., & S. Abraham Methods Enzymol. 3:35-36, 1957. GLUT4 was quantitated by western blotting as described previously using GLUT4 polyclonal antibody RaIRGT, Biogenesis, Sandown, N.H.) and horseradish peroxidase-conjugated donkey anti-rabbit IgG (Amersham Life Science, Arlington Heights, Ill.). Holmes, B. F., et al. J. Appl Physiol 87:1990-1995, 1999. δ-Aminolevulinic acid synthase was determined using western blotting techniques as described previously. Li, B., et al. J. Biol. Chem. 274:17534-17540, 1999. For determination of cytochrome c, muscles were homogenized in 10 mM n-2-hydroxyethylpiperazine-N′-2-ethanesulfonic acid (HEPES), 1 mM EDTA, and 250 mM sucrose (HES buffer). […] Cytochrome c was detected by incubating the nitrocellulose blots with a rabbit polyclonal antibody against rabbit heart cytochrome c (Alpha Diagnostics International, San Antonio) followed by horseradish peroxidase-conjugated anti-rabbit immunoglobulin G. Antibody bound GLUT4, δ-Aminolevulinic acid synthase, and cytochrome c were visualized using enhanced chemiluminescence. Protein bands were quantified by densitometry.

## NC(=O)c1ncn([C@@H]2O[C@H](CO)[C@@H](O)[C@H]2O)c1N [AICAR, 5-aminoimidazole-4-carboxamide-1-β-D-ribofuranoside]
[1]; gastrocnemius
  loss of muscle mass after 3 days of denervation: ~14%
[1]; soleus
  loss of muscle mass after 3 days of denervation: ~20%
[2]; red quadriceps
  HADH activity: 9.0 ± 0.4 µmol/g/min
[2]; soleus
  HADH activity: 4.6 ± 0.4 µmol/g/min
[2]; white quadriceps
  HADH activity: 4.6 ± 0.3 µmol/g/min
Succinate dehydrogenase; soleus
  succinate dehydrogenase activity vs controls: all increased
Succinate dehydrogenase; white quadriceps
  succinate dehydrogenase activity vs controls: all increased
Citrate synthase; red quadriceps
  citrate synthase activity vs saline-injected controls: not in red quadriceps
Citrate synthase; red region of the quadriceps, intermittent AICAR injections 1 mg/g
  citrate synthase: 57.4 ± 2.5 µmol/g/min
Citrate synthase; soleus
  citrate synthase activity vs saline-injected controls: significantly increased
Citrate synthase; white quadriceps
  citrate synthase activity vs saline-injected controls: significantly increased
Citrate synthase; white quadriceps, intermittent AICAR injections
  citrate synthase increase vs controls: 48%
Citrate synthase; white quadriceps, intermittent AICAR injections 1 mg/g (3 days on, 2 off, 5 on, 2 off, 3 on)
  citrate synthase: 23.0 ± 1.2 µmol/g/min
hexokinase; red region of the quadriceps
  hexokinase activity vs saline-injected controls: significantly increased
hexokinase; soleus
  hexokinase activity vs saline-injected controls: increase in hexokinase activity in soleus was statistically significant
hexokinase; white region of the quadriceps
  hexokinase activity vs saline-injected controls: significantly increased
GLUT4; red region of the quadriceps
  GLUT4 vs saline-injected controls: significantly increased
GLUT4; soleus, p=0.12
  GLUT4 vs saline-injected controls: did not reach statistical significance
GLUT4; white region of the quadriceps
  GLUT4 vs saline-injected controls: significantly increased
